# Experiments:
# [1] = tested on: K12PE cell line; assay: Proliferation assay; type: cell-based; settings: for Synergy analysis (Calcusyn) of combination with JQ1 on proliferation: K12PE cells, in combination with JQ1
# Procedure: (§1) Proliferation and viability assays: Cell growth curves were determined by monitoring the viability of cells with Trypan blue exclusion on a Vi-Cell-XR (Becton Dickinson, Franklin Lakes, N.J., USA). Proliferation assays were performed in triplicate at least three times (n=3) using (3H)-thymidine incorporation. All data were plotted and analyzed using GraphPad Prism 7 (GraphPad Software, La Jolla, Calif., USA) software, represented as the mean with an error determined as ±s.d.
# as §1, with “assay.” for “assays:”, “Cell lines” for “Proliferation assays”, “plated” for “performed”, “in 96-well round-bottom plates with the indicated drug concentrations or knockdown cells. […]” for “at least three times (n=3) using (3H)-thymidine incorporation.”
# [2] = tested on: AMO1 cells; assay: Apoptosis by Annexin V and Topro staining; type: cell-based; settings: AMO-1 cells
# Procedure: (§2) Flow cytometry: Annexin-V Alexa Fluor 488-conjugated antibody (Thermo Scientific, Waltham, Mass., USA) and To-Pro-3 (Thermo Scientific, Waltham, Mass., USA) were used according to the manufacturer's protocol and processed using Flow Jo software for at least three independent experiments. For cell cycle analysis, cells were stained with Propidium Iodide (PI) staining kit (Abcam, Cambridge, Mass., USA) and analysis was performed on Flow Jo V10 software. Staining of mitotic marker pHH3-Ser^10 was also performed by pHH3-Ser^10 and PI dual staining.
# (§3) The PLK1 inhibitor BI2536 and Compound 5 were tested for their activity as individual agents and in combination in AMO1 parental and AMO1-PR cell lines. […] Changes in apoptosis were analyzed using the single agent treatments and their combination using Annexin V and Topro staining. […] Changes in Ikaros and pro-survival signaling in these cell lines was analyzed in response to BI2536 and Compound 5 after 24 and 72 hours of treatment (FIG. 5K).
# [3] = tested on: AMO1-PR cells; assay: Apoptosis by Annexin V and Topro staining; type: cell-based
# Procedure: as §2, §3
# [4] = tested on: AMO1-PR (pomalidomide resistant) cell line; assay: Proliferation assay; type: cell-based; settings: for Synergy with trametinib on proliferation: in combination with trametinib
# Procedure: as §1
# as §1, with “assay.” for “assays:”, “Cell lines” for “Proliferation assays”, “plated” for “performed”, “in 96-well round-bottom plates with the indicated drug concentrations or knockdown cells. […]” for “at least three times (n=3) using (3H)-thymidine incorporation.”
# [5] = tested on: AMO1 cell line; assay: Proliferation assay; type: cell-based; settings: AMO1; for Synergy with trametinib on proliferation: in combination with trametinib
# Procedure: as §1
# as §1, with “assay.” for “assays:”, “Cell lines” for “Proliferation assays”, “plated” for “performed”, “in 96-well round-bottom plates with the indicated drug concentrations or knockdown cells. […]” for “at least three times (n=3) using (3H)-thymidine incorporation.”
# [6] = tested on: K12PE-PR cell line; assay: Proliferation assay; type: cell-based; settings: Pom resistant K12PE-PR; in combination with JQ1
# Procedure: as §1
# as §1, with “assay.” for “assays:”, “Cell lines” for “Proliferation assays”, “plated” for “performed”, “in 96-well round-bottom plates with the indicated drug concentrations or knockdown cells. […]” for “at least three times (n=3) using (3H)-thymidine incorporation.”
# [7] = tested on: AMO1 NEK2 shRNA (NEK2 knocked-down) cells; assay: Proliferation assay in NEK2 knocked-down cells; type: cell-based
# Procedure: (§4) Proliferation and viability assay. Cell growth curves were determined by monitoring the viability of cells with Trypan blue exclusion on a Vi-Cell-XR (Becton Dickinson, Franklin Lakes, N.J., USA). Cell lines were plated in triplicate in 96-well round-bottom plates with the indicated drug concentrations or knockdown cells. Proliferation assays were performed in triplicate at least three times (n=3) using either the WST-1 tetrazolium salt (Roche Applied Science) reagent used according to the manufacturer's specifications or by (3H)-thymidine incorporation as previously described (Bjorklund et al., Blood Cancer Journal 5, e354, 2015). All data were plotted and analyzed using GraphPad Prism 7 (GraphPad Software, La Jolla, Calif., USA) software, represented as the mean with an error determined as ±s.d.
# (§5) To further confirm the synergistic effect, shRNA knockdown was combined with either Compound 5 or Compound 6 treatment. Expression of control and NEK2 shRNA in AMO1 cell lines was induced, followed by exposure of the cells to increasing concentrations of Compound 5 and Compound 6. The results were measured through a proliferation assay.
# [8] = tested on: AMO1 control shRNA cells; assay: Proliferation assay in control shRNA cells; type: cell-based; settings: Homo sapiens, AMO1, read-out: IC50, proliferation
# Procedure: as §4, §5
# [9] = tested on: CKS1B and E2F2 in H929 cell line; assay: Immunoblot of CKS1B and E2F2 after BET inhibitors; type: cell-based; settings: FIG. 10B
# Excerpt: (§6) Effects of BRD4 inhibitors on CKS1B and E2F2 and their target genes. CKS1B and E2F2 have been enlisted as super-enhancer (SE) associated genes in MM (Loven, J., et al., Cell, 2013, 153(2): p. 320-34). In order to pharmacologically target CKS1B and E2F2, the BET inhibitors JQ1 and Compound A were utilized in MDMS8-like and H929 cell lines. […] BET inhibitors also promoted a decrease in Cereblon substrates, Ikaros, Aiolos and c-Myc levels. Further, an increase in the levels of P27 was observed, which is a negative regulator of CKS1B signaling. Immunofluorescence staining was performed to analyze the localization and expression of CKS1B and E2F2 in response to JQ1 and confirmed the decrease in their nuclear expression in MDMS8-like cells (data not shown). Since BET inhibitors mediate their changes mainly at transcript levels, transcript levels of CKS1B and E2F2 were analyzed in response to BET inhibitors. In both MDMS8-like and H929 cell lines, BET inhibitors promoted a decrease in transcript levels of CKS1B and E2F2 (FIG. 10C, FIG. 10D, FIG. 10E, and FIG. 10F). […] To ascertain the SE mediated regulation of CKS1B and E2F2, CDK7 inhibitors targeting SE-associated complexes in MM cell lines were utilized.
# [10] = tested on: CKS1B and E2F2 in MDMS8-like (DF15PR) cell line; assay: Immunoblot of CKS1B and E2F2 after BET inhibitors; type: cell-based; settings: FIG. 10A
# Excerpt: as §6
# [11] = tested on: MM1.S cell line; assay: Proliferation assay; type: cell-based; settings: Homo sapiens, 1q amp 3×, BRD4/BET inhibition
# Procedure: as §1
# [12] = tested on: U266 cell line; assay: Proliferation assay; type: cell-based; settings: Homo sapiens, U-266, 1q amp 3×, BRD4/BET inhibition, read-out: IC50
# Procedure: as §1
# [13] = tested on: KMS11 cell line; assay: Proliferation assay; type: cell-based; settings: Homo sapiens, KMS-11, 1q amp 6-8×, BRD4/BET inhibition
# Procedure: as §1
# [14] = tested on: DF15/PR cell line; assay: Proliferation assay; type: cell-based; settings: 1q amp 3×, BRD4/BET inhibition
# Procedure: as §1
# [15] = tested on: H929 cell line; assay: Proliferation assay; type: cell-based; settings: Homo sapiens, NCI-H929, 1q amp 3-4×, BRD4/BET inhibition, read-out: IC50
# Procedure: as §1, §4
# [16] = tested on: Mc-CAR cell line; assay: Proliferation assay; type: cell-based; settings: McCAR; 1q amp normal; BRD4/BET inhibition; read-out: IC50
# Procedure: as §1, §4
# [17] = tested on: several MM cell lines; assay: Proliferation of MM cell lines with CDK7 inhibitor; type: cell-based; settings: data not shown
# Procedure: as §1
# Effects of BRD4 inhibitors on CKS1B and E2F2 and their target genes. CKS1B and E2F2 have been enlisted as super-enhancer (SE) associated genes in MM (Loven, J., et al., Cell, 2013, 153(2): p. 320-34). In order to pharmacologically target CKS1B and E2F2, the BET inhibitors JQ1 and Compound A were utilized in MDMS8-like and H929 cell lines. […] BET inhibitors also promoted a decrease in Cereblon substrates, Ikaros, Aiolos and c-Myc levels. Further, an increase in the levels of P27 was observed, which is a negative regulator of CKS1B signaling. Immunofluorescence staining was performed to analyze the localization and expression of CKS1B and E2F2 in response to JQ1 and confirmed the decrease in their nuclear expression in MDMS8-like cells (data not shown). Since BET inhibitors mediate their changes mainly at transcript levels, transcript levels of CKS1B and E2F2 were analyzed in response to BET inhibitors. […]
# [18] = tested on: acute myeloid leukemia (AML); settings: administered alone; cited from earlier work
compound,measurement,setting,value
"CC[C@@H]1C(=O)N(C)c2cnc(Nc3ccc(C(=O)NC4CCN(C)CC4)cc3OC)nc2N1C1CCCC1 [BI2536, (R)-4-((8-cyclopentyl-7-ethyl-5-methyl-6-oxo-5,6,7,8-tetrahydropteridin-2-yl)amino)-3-methoxy-N-(1-methylpiperidin-4-yl)benzamide]",Activity in biallelic P53 cell line compared to P53-wild type cells,"[1]; K12PE vs AMO1, FIG. 7B",higher activity
same,late apoptosis,[2]; vehicle 2.24%,4.25%
same,early apoptosis,[2]; vehicle 2.69%,10.9%
same,late apoptosis,[3]; vehicle 2.77%,7.55%
same,early apoptosis,[3]; vehicle 3.82%,23.2%
"Nc1cccc2c1CN(C1CCC(=O)NC1=O)C2=O (centres unmarked) [Compound 2, 3-(4-amino-1-oxo-1,3 dihydro-isoindol-2-yl)-piperidine-2,6-dione]",Synergy with trametinib on proliferation,[4],strong synergy
same,Synergy with trametinib on proliferation,[5],strong synergy
same,Synergy of combination with JQ1 on proliferation,[6],synergistically decreased proliferation
same,Synergy analysis (Calcusyn) of combination with JQ1 on proliferation,[1],synergistic
"N#Cc1ccc(N2CCN(Cc3ccc(COc4cccc5c4CN([C@H]4CCC(=O)NC4=O)C5=O)cc3)CC2)c(F)c1 [Compound 6, (S)-4-(4-(4-(((2-(2,6-dioxopiperidin-3-yl)-1-oxoisoindolin-4-yl)oxy)methyl)benzyl)piperazin-1-yl)-3-fluorobenzonitrile]",Synergy (Calcusyn) with NEK2 inhibitors (JH295 and rac-CCT 250863) on proliferation,[4]; NEK2 inhibitor 0.016-10 μM,strong synergy
same,Combination analysis (Calcusyn) with YM155 on proliferation,[4]; in combination with YM155,synergistic activity
same,Synergy with trametinib on proliferation,[4],strong synergy
same,Synergy (Calcusyn) with NEK2 inhibitors (JH295 and rac-CCT 250863) on proliferation,[5]; NEK2 inhibitor 0.016-10 μM,strong synergy
same,Combination analysis (Calcusyn) with YM155 on proliferation,[5]; in combination with YM155,synergistic activity
same,Synergy with trametinib on proliferation,[5],strong synergy
same,Synergy of combination with JQ1 on proliferation,[6],synergistically decreased proliferation
same,Synergy analysis (Calcusyn) of combination with JQ1 on proliferation,[1],synergistic
same,IC50,"[7]; Homo sapiens, NEK2 knocked-down AMO1 cells",2.89 nM
same,Increase of activity by NEK2 knockdown in comparison to control shRNA cell line,[7]; IC50 control cells vs NEK2 knocked-down cells,10 fold
same,IC50,[8],29.6 nM
"Cn1cc(-c2cc(S(C)(=O)=O)ccc2OCC2CC2)c2ccccc2c1=O [Compound A, 4-[2-(cyclopropylmethoxy)-5-(methanesulfonyl)phenyl]-2-methylisoquinolin-1(2H)-one]",protein levels of CKS1B and E2F2,[9],dose and time dependent decrease
same,protein levels of CKS1B and E2F2,[10],dose and time dependent decrease
same,IC50,[11],28.2 nM
same,IC50,[12],33.9 nM
same,IC50,[13],40.3 nM
same,IC50,[14],35.9 nM
same,IC50,[15],54.1 nM
same,IC50,[16],93.4 nM
"Cc1sc2c(c1C)C(c1ccc(Cl)cc1)=N[C@@H](CC(=O)OC(C)(C)C)c1nnc(C)n1-2 [JQ1, (S)-tert-butyl 2-(4-(4-chlorophenyl)-2,3,9-trimethyl-6H-thieno[3,2-f][1,2,4]triazolo[4,3-a][1,4]diazepin-6-yl)acetate]",protein levels of CKS1B and E2F2,[9],dose and time dependent decrease
same,protein levels of CKS1B and E2F2,[10],dose and time dependent decrease
same,IC50,[11],15.2 nM
same,IC50,[12],14.8 nM
same,IC50,[13],36.2 nM
same,IC50,[14],37.8 nM
same,IC50,[15],51.7 nM
same,IC50,[16],83.5 nM
CN(C)C/C=C/C(=O)Nc1ccc(C(=O)Nc2cccc(Nc3ncc(Cl)c(-c4c[nH]c5ccccc45)n3)c2)cc1 [THZ1],proliferation,[17],potent decrease in proliferation
"CT-011: anti-PD-1 antibody, a humanized antibody",response in treating acute myeloid leukemia (AML) at relapse,[18],failed to show response
